Data on ten compounds can be found in ChEMBL document CHEMBL1201862, “PubChem BioAssay data set” (2004).

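Five compound concentrations were applied to cells in 96-well plates for 48 hours; endpoints were derived by simple linear interpolation of the resulting dose-response curve. GI50 marks 50% less growth.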 Calls of active or inactive are those of the source. No stated cut-off is given here; in the data, active = GI50 up to about 1.1 µM and inactive = higher.

Among the test systems are SF-268; HCT-15; UACC-62; SF-295; SK-OV-3; PC-3; HL-60; HCC 2998; U-251; RXF 393; HOP-62; T47D; OVCAR-5; SR; SNB-75; EKVX; 786-0; SK-MEL-5; OVCAR-4; LOX IMVI.
Holding throughout (assay): growth of human tumour cells (NCI), 48 h

Consider `O=C1NCCCc2nonc21`, for which the GI50 with SF-268 is > 100 µM (inactive); with HCT-15, more than 100 µM; in the assay on UACC-62, > 100 µM (inactive); with SF-295 it was > 100 µM (inactive); with SK-OV-3, > 100 µM (inactive); in the assay on PC-3 it was > 100 µM (inactive). The GI50 in the assay on HL-60, with HCC 2998, in the assay with U-251, with RXF 393, in the assay with HOP-62 and in the assay with T47D was > 100 µM (inactive) in each case. Besides, the GI50 with OVCAR-5, in the assay with SR, with SNB-75, in the assay on EKVX, with 786-0 and in the assay with SK-MEL-5 was > 100 µM (inactive) each time. The GI50 in the assay with OVCAR-4 and in the assay with LOX IMVI was > 100 µM (inactive) each time.
On to `CCOC(=O)c1cc(Br)c(-c2cc(C)co2)[nH]1`, for which the GI50 in the assay on SF-268 was > 100 µM (inactive); with HCT-15, more than 100 µM; in the assay with UACC-62 it was > 100 µM (inactive); with SF-295 it was > 100 µM (inactive); with SK-OV-3, > 100 µM (inactive); in the assay with PC-3, > 100 µM (inactive). Besides, the GI50 in the assay with HL-60 is 55.7 µM (inactive); in the assay on HCC 2998 it was > 100 µM (inactive); with U-251 it was > 100 µM (inactive); in the assay with RXF 393, > 100 µM (inactive); in the assay on HOP-62, > 100 µM (inactive); in the assay with T47D it was > 100 µM (inactive). The GI50 in the assay with OVCAR-5 was > 100 µM (inactive); with SR, 31.8 µM (inactive); with SNB-75, > 100 µM (inactive); in the assay with EKVX, 67 µM (inactive); with 786-0 it was > 100 µM (inactive); in the assay with SK-MEL-5 it was 81.3 µM (inactive). Further, the GI50 in the assay with OVCAR-4 and in the assay with LOX IMVI was > 100 µM (inactive) throughout.
With `CC(=O)O[C@H]1C(=O)[C@@]2(C)[C@H]([C@H](OC(=O)c3ccccc3)[C@]3(O)C[C@H](OC(=O)[C@H](O)[C@@H](NC(=O)c4ccc(N)cc4)c4ccccc4)C(C)=C1C3(C)C)[C@]1(OC(C)=O)CO[C@@H]1C[C@@H]2O`, the GI50 in the assay on SF-268 was 0.0107 µM (active); with HCT-15 it was 2.68 µM; in the assay on UACC-62, 0.00815 µM (active); with SF-295, 0.135 µM (active); with SK-OV-3, 0.0134 µM (active); in the assay with PC-3, < 0.005 µM (active). Further, the GI50 is < 0.005 µM (active) in the assay with HL-60; < 0.005 µM (active) in the assay on HCC 2998; < 0.005 µM (active) in the assay with U-251; 0.0887 µM (active) with RXF 393; 0.0253 µM (active) in the assay on HOP-62; < 0.005 µM (active) in the assay with T47D. Also, the GI50 with OVCAR-5 is 0.00687 µM (active); with SR, < 0.005 µM (active); with SNB-75, < 0.005 µM (active); in the assay on EKVX it was 0.959 µM (active); in the assay on 786-0 it was 0.0369 µM (active); with SK-MEL-5, < 0.005 µM (active). Moreover, the GI50 with OVCAR-4 was > 31.8 µM (inactive); with LOX IMVI, < 0.005 µM (active).
Turning to `O=C1c2cccc3cc([N+](=O)[O-])cc(c23)C(=O)N1Nc1ccc([N+](=O)[O-])cc1[N+](=O)[O-]`, the GI50 was 21.7 µM (inactive) in the assay on SF-268; 14.5 µM in the assay with HCT-15; 13.6 µM (inactive) in the assay on UACC-62; 27 µM (inactive) in the assay with SF-295; > 31.6 µM (inactive) with SK-OV-3; 17.9 µM (inactive) in the assay with PC-3. For the same compound, the GI50 with HL-60 is 4.23 µM (inactive); in the assay on HCC 2998 it was 14 µM (inactive); in the assay on U-251 it was 13.3 µM (inactive); in the assay with RXF 393, 23.3 µM (inactive); in the assay on HOP-62, 14 µM (inactive); with T47D, 16.4 µM (inactive). For the same compound, the GI50 in the assay on OVCAR-5 was > 70.5 µM (inactive); with SR it was 2.64 µM (inactive); in the assay with SNB-75, 18.2 µM (inactive); in the assay with EKVX, 24.4 µM (inactive); with 786-0, 13.6 µM (inactive); in the assay with SK-MEL-5, 13 µM (inactive). Also, the GI50 was 19.3 µM (inactive) in the assay on OVCAR-4 and 10.5 µM (inactive) with LOX IMVI.
As to `CN(C)C(=O)CO/N=C1/C(=C2/C(=O)Nc3ccccc32)Nc2ccccc21`, the GI50 in the assay with SF-268 is > 100 µM (inactive); with HCT-15, more than 100 µM; with UACC-62 it was > 100 µM (inactive); with SF-295 it was 39.9 µM (inactive); in the assay on SK-OV-3, > 100 µM (inactive); in the assay on PC-3, > 100 µM (inactive). The GI50 in the assay with HL-60 is > 100 µM (inactive); in the assay with HCC 2998, > 100 µM (inactive); in the assay on U-251, 26.6 µM (inactive); in the assay with RXF 393 it was 17.7 µM (inactive); in the assay with HOP-62 it was 18.7 µM (inactive); with T47D it was > 100 µM (inactive). Further, the GI50 was > 100 µM (inactive) with OVCAR-5; 88.7 µM (inactive) in the assay with SR; 30.4 µM (inactive) in the assay on SNB-75; > 100 µM (inactive) with EKVX; 64.7 µM (inactive) in the assay on 786-0; 37.3 µM (inactive) in the assay on SK-MEL-5. In addition, the GI50 in the assay on OVCAR-4 and in the assay on LOX IMVI was > 100 µM (inactive) each time.
For `Cc1cc(S(=O)(=O)NC2=Nc3ccccc3C(c3ccccc3)N2)c(S)cc1Cl` (stereo not given), the GI50 is 39 µM (inactive) with SF-268; 59.3 µM with HCT-15; > 100 µM (inactive) in the assay with UACC-62; 31.5 µM (inactive) with SF-295; > 100 µM (inactive) in the assay on SK-OV-3; 16.4 µM (inactive) in the assay with PC-3. Further, the GI50 with HL-60 is > 100 µM (inactive); in the assay with HCC 2998 it was > 100 µM (inactive); in the assay on U-251 it was 37.7 µM (inactive); in the assay on RXF 393, 48.2 µM (inactive); in the assay with HOP-62, > 100 µM (inactive); with T47D, 6.56 µM (inactive). Moreover, the GI50 is > 100 µM (inactive) in the assay on OVCAR-5; 23.3 µM (inactive) in the assay on SR; > 100 µM (inactive) in the assay on SNB-75; > 100 µM (inactive) in the assay on EKVX; 8.2 µM (inactive) in the assay on 786-0; > 100 µM (inactive) with SK-MEL-5. In addition, the GI50 with OVCAR-4 is 13.6 µM (inactive); in the assay on LOX IMVI, 39.3 µM (inactive).
`Cc1cc(NS(=O)(=O)c2ccc(NC(=O)c3ccc4nc5ccccc5c(Nc5ccc(S(=O)(=O)N=C(N)N)cc5)c4c3)cc2)no1`: the GI50 is 19 µM (inactive) with SF-268; 15.4 µM with HCT-15; 21.7 µM (inactive) in the assay on UACC-62; 16.9 µM (inactive) in the assay with SF-295; 23.3 µM (inactive) in the assay with SK-OV-3; 16.9 µM (inactive) in the assay with PC-3. For the same compound, the GI50 in the assay with HL-60 was 17.5 µM (inactive); in the assay on HCC 2998, 16 µM (inactive); with U-251, 16.2 µM (inactive); with RXF 393, 15.3 µM (inactive); with HOP-62, 17.5 µM (inactive); with T47D it was 14.6 µM (inactive). In addition, the GI50 in the assay on OVCAR-5 is 17.5 µM (inactive); in the assay on SR it was 18.3 µM (inactive); in the assay on SNB-75, 18.6 µM (inactive); in the assay on EKVX, 16.4 µM (inactive); in the assay on 786-0 it was 15.2 µM (inactive); with SK-MEL-5, 16.2 µM (inactive). Besides, the figures for the GI50 with OVCAR-4 and in the assay on LOX IMVI were 14.3 µM (inactive) and 9.46 µM (inactive), respectively.
For the compound `OCC1OC(O)C(/N=C\c2ccc3c(c2)OCO3)C(O)C1O` (stereo not given), the GI50 was > 100 µM (inactive) in the assay on SF-268; more than 100 µM in the assay on HCT-15; > 100 µM (inactive) in the assay with UACC-62; > 100 µM (inactive) with SF-295; > 100 µM (inactive) in the assay on SK-OV-3; > 100 µM (inactive) in the assay with PC-3. Moreover, the GI50 in the assay on HL-60, in the assay with HCC 2998, in the assay on U-251, in the assay with RXF 393, with HOP-62 and in the assay on T47D was > 100 µM (inactive) throughout. Besides, the GI50 with OVCAR-5 was > 100 µM (inactive); in the assay with SR it was > 100 µM (inactive); with SNB-75 it was > 100 µM (inactive); with EKVX, > 65.3 µM (inactive); in the assay on 786-0, > 100 µM (inactive); in the assay on SK-MEL-5, > 100 µM (inactive). The GI50 in the assay on OVCAR-4 and in the assay with LOX IMVI was > 100 µM (inactive) each time.
On to `COc1ccc2nc3cc(Cl)ccc3c(NCCCN(C)CCCNc3ccc4ncn5c6ccccc6c(=O)c3c45)c2c1`, for which the GI50 in the assay on SF-268 was 0.246 µM (active); with HCT-15 it was 0.0476 µM; in the assay with UACC-62, 1.92 µM (inactive); in the assay with SF-295, 0.169 µM (active); with SK-OV-3, 2.72 µM (inactive); in the assay on PC-3, 0.547 µM (active). Further, the GI50 in the assay with HL-60 is 0.0226 µM (active); in the assay with HCC 2998, 0.0103 µM (active); in the assay with U-251 it was 0.0478 µM (active); in the assay with RXF 393, 0.0536 µM (active); in the assay with HOP-62 it was 0.817 µM (active); in the assay on T47D, 4.15 µM (inactive). For the same compound, the GI50 in the assay on OVCAR-5 is 3.09 µM (inactive); with SR, 0.019 µM (active); in the assay with SNB-75, 2.38 µM (inactive); in the assay with EKVX, 0.637 µM (active); with 786-0 it was 0.0333 µM (active); in the assay on SK-MEL-5 it was 0.366 µM (active). For the same compound, the GI50 in the assay with OVCAR-4 is 0.0897 µM (active); in the assay on LOX IMVI, 0.116 µM (active).
As for `COc1cc2ccc(=O)oc2cc1O` [SCOPOLETIN], the GI50 in the assay with SF-268 is 92.3 µM (inactive); in the assay with HCT-15, 25.1 µM; in the assay on UACC-62, 71.3 µM (inactive); in the assay on SF-295, 19.7 µM (inactive); in the assay with SK-OV-3, 94.2 µM (inactive); in the assay on PC-3, > 100 µM (inactive). The GI50 in the assay on HL-60 was 34.8 µM (inactive); in the assay on HCC 2998, 98.4 µM (inactive); with U-251, 24.8 µM (inactive); in the assay with RXF 393, 128 µM (inactive); in the assay with HOP-62 it was 134 µM (inactive); in the assay with T47D it was > 100 µM (inactive). The GI50 is 156 µM (inactive) in the assay on OVCAR-5; > 100 µM (inactive) in the assay on SR; 50.8 µM (inactive) in the assay on SNB-75; 57.5 µM (inactive) in the assay with EKVX; > 100 µM (inactive) in the assay on 786-0; 78 µM (inactive) in the assay with SK-MEL-5. For the same compound, the values for the GI50 in the assay on OVCAR-4 and with LOX IMVI were 101 µM (inactive) and 61.9 µM (inactive), respectively.
